Experimental data from ChEMBL document CHEMBL1155404, “Synthesis, chiral resolution, and determination of novel furan lignan derivatives with potent anti-tumor activity” (Bioorg Med Chem Lett, 2010).

Assays:
[1] = Antitumor activity against human QGY7701 cells by MTT assay; assay type: functional, cell-based
HeLa = assay: Antitumor activity against human HeLa cells by MTT assay; assay type: functional, cell-based

O=c1[nH]cc(F)c(=O)[nH]1 [FLUOROURACIL]
IC50 [1]: 67.2 µM
IC50 (HeLa): 64.2 µM
